Test results: BindingDB's records for patent US20250129027 (Apogee Pharmaceuticals, 2025)
pIC50: −log10 of the molar value.

Key:
Monoglyceride lipase = target: T1, Monoglyceride lipase (Homo sapiens, UniProt Q99685); test: In Vitro Inhibition on FAAH and MAGL Activity Assay
T1 sequence (Q99685 whole entry): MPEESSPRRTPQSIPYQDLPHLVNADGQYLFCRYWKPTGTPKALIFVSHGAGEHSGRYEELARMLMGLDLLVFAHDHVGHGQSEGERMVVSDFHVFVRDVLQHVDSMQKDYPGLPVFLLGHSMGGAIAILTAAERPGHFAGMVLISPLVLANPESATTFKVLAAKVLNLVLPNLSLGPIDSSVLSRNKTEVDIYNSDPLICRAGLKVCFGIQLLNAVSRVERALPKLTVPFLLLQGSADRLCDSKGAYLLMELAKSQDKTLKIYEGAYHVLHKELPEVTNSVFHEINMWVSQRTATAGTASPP
Excerpt: (§1) In brief, FAAH hydrolyzes AMC arachidonoyl amide resulting in the release of the fluorescent product, while the inhibitor will inhibit the FAAH activity and thus reduce the fluorescent signal. […] The absorbance of the yellow product can be analyzed using the plate reader.

[1] = target: T2, Fatty-acid amide hydrolase 1 (Homo sapiens, UniProt O00519); test: as above
T2 sequence (O00519 whole entry): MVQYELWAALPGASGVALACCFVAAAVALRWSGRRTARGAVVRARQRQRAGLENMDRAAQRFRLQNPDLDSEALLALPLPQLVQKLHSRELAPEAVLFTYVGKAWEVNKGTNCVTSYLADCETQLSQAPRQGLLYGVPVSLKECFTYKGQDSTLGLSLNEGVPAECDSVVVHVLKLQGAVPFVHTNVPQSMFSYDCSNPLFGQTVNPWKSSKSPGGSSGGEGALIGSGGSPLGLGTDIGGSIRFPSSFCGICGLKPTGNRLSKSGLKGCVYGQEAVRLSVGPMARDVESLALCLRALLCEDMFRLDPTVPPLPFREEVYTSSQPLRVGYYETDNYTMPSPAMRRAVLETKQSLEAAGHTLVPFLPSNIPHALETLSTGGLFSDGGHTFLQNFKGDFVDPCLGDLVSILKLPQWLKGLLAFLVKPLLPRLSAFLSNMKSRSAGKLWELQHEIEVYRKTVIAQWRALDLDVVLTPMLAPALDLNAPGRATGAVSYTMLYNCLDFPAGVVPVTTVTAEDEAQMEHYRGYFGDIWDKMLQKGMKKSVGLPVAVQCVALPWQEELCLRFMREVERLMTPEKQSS
Excerpt: as §1

With `CCCCCNC(=O)Oc1cccc(-c2cncc(C(=O)OCC)c2)c1` [US20250129027, Example 1] the pIC50 (Monoglyceride lipase) was less than 5.00.
`CCCCCCCCNC(=O)Oc1cccc(-c2cncc(C(=O)OCC)c2)c1` [US20250129027, Example 3] gave a pIC50 (Monoglyceride lipase) of less than 5.00.
Compound `CCCCCNC(=O)Oc1cccc(-c2cncc(C(=O)OC)c2)c1` [US20250129027, Example 8] has a pIC50 (Monoglyceride lipase) of less than 5.00.
`CCCCCCCNC(=O)Oc1cccc(-c2cncc(C(=O)OC)c2)c1` [US20250129027, Example 9] gave a pIC50 (Monoglyceride lipase) of less than 5.00.
Work on `CCCCCCCCNC(=O)Oc1cccc(-c2cncc(C(=O)OC)c2)c1` [US20250129027, Example 10] yielded a pIC50 (Monoglyceride lipase) of less than 6.00.
`O=Cc1cncc(-c2cccc(OC(=O)NC3CCCCC3)c2)c1` [US20250129027, Example 19] gave a pIC50 [1] of 6.00 and a pIC50 (Monoglyceride lipase) of less than 5.00.
Compound `CCCCCCCCCCCCCCNC(=O)Oc1cccc(-c2cncc(C(=O)NO)c2)c1` [US20250129027, Example 24] has a pIC50 [1] greater than 8.00 and a pIC50 (Monoglyceride lipase) of less than 5.00.
Compound `CCCCCCCNC(=O)Oc1cccc(-c2cncc(C#N)c2)c1` [US20250129027, Example 26] has a pIC50 (Monoglyceride lipase) of less than 5.00.
`CCCCCCCCNC(=O)Oc1cccc(-c2cncc(C#N)c2)c1` [US20250129027, Example 27] gave a pIC50 (Monoglyceride lipase) of less than 5.00.
For `CCCCCCCCNC(=O)Oc1cccc(-c2cncc(C(F)(F)F)c2)c1` [US20250129027, Example 30], the pIC50 (Monoglyceride lipase) was less than 5.00.
`CCCCCCCCNC(=O)Oc1ccc(OC)c(-c2cncc(-c3ccc[nH]3)c2)c1` [US20250129027, Example 41] was tested, and the pIC50 (Monoglyceride lipase) was less than 5.00.
With `CCCCCCCCNC(=O)Oc1cccc(-c2cncc(-c3ccco3)c2)c1` [US20250129027, Example 47] the pIC50 (Monoglyceride lipase) was 5.00.
Work on `CCCCCCCCNC(=O)Oc1ccc(OC)c(-c2cncc(-c3cccs3)c2)c1` [US20250129027, Example 65] yielded a pIC50 (Monoglyceride lipase) of 5.00.
`CCCCCCCCNC(=O)Oc1ccc(OC(F)(F)F)c(-c2cncc(-c3ncco3)c2)c1` [US20250129027, Example 88] showed a pIC50 (Monoglyceride lipase) of 5.00.
Compound `CCCCCCNC(=O)Oc1cccc(-c2cncc(-c3nnco3)c2)c1` [US20250129027, Example 128] has a pIC50 (Monoglyceride lipase) of less than 4.30.
In the case of `CCCCCCCCNC(=O)Oc1cccc(-c2cncc(-c3nnco3)c2)c1` [US20250129027, Example 130], the pIC50 (Monoglyceride lipase) was less than 5.00.
With `CCCCCCCCCCCCNC(=O)Oc1cccc(-c2cncc(-c3nnco3)c2)c1` [US20250129027, Example 131] the pIC50 (Monoglyceride lipase) was greater than 5.00.
In the case of `CCCCCCCCCCCCCCNC(=O)Oc1cccc(-c2cncc(-c3nnco3)c2)c1` [US20250129027, Example 132], the pIC50 [1] was greater than 7.70 and the pIC50 (Monoglyceride lipase) was greater than 5.00.
With `CN(C(=O)Oc1cccc(-c2cncc(-c3nnco3)c2)c1)C1CCCCCC1` [US20250129027, Example 144] the pIC50 [1] was less than 6.00 and the pIC50 (Monoglyceride lipase) was less than 5.00.
With `CCCCCCCNC(=O)Oc1ccc(O)c(-c2cncc(-c3nnco3)c2)c1` [US20250129027, Example 156] the pIC50 (Monoglyceride lipase) was less than 4.70.
`CCCCCCCCNC(=O)Oc1ccc(O)c(-c2cncc(-c3nnco3)c2)c1` [US20250129027, Example 157] showed a pIC50 (Monoglyceride lipase) of less than 5.00.
With `CCCCCCCNC(=O)Oc1ccc(OC)c(-c2cncc(-c3nnco3)c2)c1` [US20250129027, Example 166] the pIC50 (Monoglyceride lipase) was less than 5.00.
Compound `CCCCCCCCNC(=O)Oc1ccc(OC)c(-c2cncc(-c3nnco3)c2)c1` [US20250129027, Example 167] has a pIC50 (Monoglyceride lipase) of less than 5.00.
For `CN(C)c1ccc(OC(=O)NC2CCCC2)cc1-c1cncc(-c2nnco2)c1` [US20250129027, Example 183], the pIC50 [1] was less than 6.00 and the pIC50 (Monoglyceride lipase) was less than 5.00.
`COc1ccc(OC(=O)NC2CCCCC2)cc1-c1cncc(-c2nncs2)c1` [US20250129027, Example 217] was tested, and the pIC50 (Monoglyceride lipase) was less than 5.00.
